Data on 18 molecules can be found in patent US20090192176A1, “1H-PYRAZOLO[3,4-D]PYRIMIDINE, PURINE, 7H-PURIN-8(9H)-ONE, 3H-[1,2,3]TRIAZOLO[4,5-D]PYRIMIDINE, AND THIENO[3,2-D]PYRIMIDINE COMPOUNDS, THEIR USE AS mTOR KINASE AND PI3 KINASE INHIBITORS, AND THEIR SYNTHESES” (Wyeth, priority 2008, published 2009).

Common to all, as to format: biochemical
One assay concerns the target T1, Human mTOR (Homo sapiens, UniProt P42345).
T1 construct: FLAG
Description: mTOR kinase assay (DELFIA format, purified enzyme). The note with it: His6-S6K substrate, read-out: TOR Kinase IC50. The protocol:
mTOR Kinase Assay Methods
Human mTOR assays (See Toral-Barza, et al. Biochem Biophys. Res. Commun. 2005 Jun. 24; 332(1):304-10) with purified enzyme are performed in 96-well plates by DELFIA format as follows. Enzymes are first diluted in kinase assay buffer (10 mM HEPES (pH 7.4), 50 mM NaCl, 50 mM β-glycerophosphate, 10 mM MnCl2, 0.5 mM DTT, 0.25 mM microcystin LR, and […]). To each well, 12 μL of the diluted enzyme is mixed briefly with 0.5 μL test inhibitor or control vehicle dimethylsulfoxide (DMSO). The kinase reaction is initiated by adding 12.5 μL kinase assay buffer containing ATP and His6-S6K to give a final reaction volume of 25 μL containing 800 ng/mL FLAG-TOR, […] and […]. The reaction plate is incubated for 2 hours (linear at 1-6 hours) at room temperature with gentle shaking and then terminated by adding 25 μL Stop buffer (20 mM HEPES (pH 7.4), 20 mM EDTA, 20 mM EGTA). The DELFIA detection of the phosphorylated (Thr-389) His6-S6K is performed at room temperature using a monoclonal anti-P(T389)-p70S6K antibody (1A5, Cell Signaling) labeled with Europium-N1-ITC (Eu) (10.4 Eu per antibody, PerkinElmer). The DELFIA Assay buffer and Enhancement solution can be purchased from PerkinElmer. 45 μL of the terminated kinase reaction mixture is transferred to a MaxiSorp plate (Nunc) containing 55 μL PBS. The His6-S6K is allowed to attach for 2 hours after which the wells are aspirated and washed once with PBS. 100 μL of DELFIA Assay buffer with 40 ng/mL Eu-P(T389)-S6K antibody is added. The antibody binding is continued for 1 hour with gentle agitation. The wells are then aspirated and washed 4 times with PBS containing 0.05% Tween-20 (PBST). 100 μL of DELFIA Enhancement solution is added to each well and the plates are read in a PerkinElmer Victor model plate reader. Data obtained is used to calculate enzymatic activity and enzyme inhibition by potential inhibitors.

The next assay deals with PI3 Kinase α (Homo sapiens, UniProt P42336). Description: Fluorescence polarization assay for PI3K. Here is the method:
(§1) Fluorescence Polarization Assay for PI3K
(§2) This assay is used to determine the IC50 of compounds of the present invention as it identifies inhibitors of PI3 kinase by measuring inhibition.
(§3) Reaction Buffer: 20 mM HEPES, pH 7.5, 2 mM MgCl2, 0.05% CHAPS; and 0.01% BME (added fresh) Stop/Detection Buffer: 100 mM HEPES, pH 7.5, 4 mM EDTA, 0.05% CHAPS; ATP 20 mM in water; PIP2 (diC8, cat# P-4508) 1 mM in water (MW=856.5); GST-GRP 1.75 mg/mL or 1.4 mg/mL in 10% glycerol; Red detector (TAMRA) 2.5 μM; Plate: Nunc 384 well black polypropylene fluorescence plate.
(§4) The assay is run by placing 5 μL of diluted enzyme per well, then 5 μL of diluted compound (or 9.5 μL enzyme then 0.5 μL compound in DMSO) is added and mixed. Then, 10 μL substrate is added to start the reaction. The samples are incubated 30-60 minutes, then the reaction is stopped by adding 20 μL stop/detector mix. PI3K is diluted with reaction buffer (e.g., 5 μL or 7.5 μL PI3K into 620 μL reaction buffer), and 5 μL of diluted enzyme is used per well. 5 μL reaction buffer or drug diluted in buffer (e.g., 4 μL/100 so final DMSO is 1% in reaction) is added to each. Pipetting up and down mixes the samples. Alternatively, the enzyme can be diluted to 1215 μL. In this case 9.8 μL is added per well and 0.2 μL compound is added in DMSO. To prepare 1 mL of substrate solution, 955 μL reaction buffer, 40 μL PIP2, and 2.5 μL ATP are mixed. 10 μL of substrate is added to each well to start the reaction.
(§5) Stop/detector mix is prepared by mixing 4 μL Red detector and 1.6 μL or 2.0 μL GST-GRP with 1 mL Stop buffer, which results in 10 nM probe and 70 nM GST-GRP). 20 μL of the stop/detector mix is added to each well to stop the reaction. The plates are read after 30-90 minutes keeping the red probe solutions dark. For the zero time point, stop/detector mix is added to the enzyme just before adding substrate. For an extra control, stop/detector mix is added to buffer (no enzyme) and substrate or to just buffer (no substrate). […] The recommended reaction has 0.06 μL per 20 μL (0.015 μg/20 μL) or 0.01125 μg/15 μL or 0.75 μg/mL. Plates are read on machines with filters for Tamra. The units are mP with no enzyme controls reading app 190-220 mP units. Fully active enzyme reduces fluorescence polarization down to 70-100 mP after 30 minutes. An active compound raises the mP values halfway to control or to 120-150 mP units.
A general note: Polarisation of emitted light reports the rotation of a fluorescent probe.

Another assay addresses PI3 Kinase γ (Homo sapiens, UniProt P48736). Description: Fluorescence polarization assay for PI3K. The protocol:
as §1, §2, §3, §4, §5

Some results are limits rather than exact numbers.

Chain of PI3 Kinase α (P42336 whole entry): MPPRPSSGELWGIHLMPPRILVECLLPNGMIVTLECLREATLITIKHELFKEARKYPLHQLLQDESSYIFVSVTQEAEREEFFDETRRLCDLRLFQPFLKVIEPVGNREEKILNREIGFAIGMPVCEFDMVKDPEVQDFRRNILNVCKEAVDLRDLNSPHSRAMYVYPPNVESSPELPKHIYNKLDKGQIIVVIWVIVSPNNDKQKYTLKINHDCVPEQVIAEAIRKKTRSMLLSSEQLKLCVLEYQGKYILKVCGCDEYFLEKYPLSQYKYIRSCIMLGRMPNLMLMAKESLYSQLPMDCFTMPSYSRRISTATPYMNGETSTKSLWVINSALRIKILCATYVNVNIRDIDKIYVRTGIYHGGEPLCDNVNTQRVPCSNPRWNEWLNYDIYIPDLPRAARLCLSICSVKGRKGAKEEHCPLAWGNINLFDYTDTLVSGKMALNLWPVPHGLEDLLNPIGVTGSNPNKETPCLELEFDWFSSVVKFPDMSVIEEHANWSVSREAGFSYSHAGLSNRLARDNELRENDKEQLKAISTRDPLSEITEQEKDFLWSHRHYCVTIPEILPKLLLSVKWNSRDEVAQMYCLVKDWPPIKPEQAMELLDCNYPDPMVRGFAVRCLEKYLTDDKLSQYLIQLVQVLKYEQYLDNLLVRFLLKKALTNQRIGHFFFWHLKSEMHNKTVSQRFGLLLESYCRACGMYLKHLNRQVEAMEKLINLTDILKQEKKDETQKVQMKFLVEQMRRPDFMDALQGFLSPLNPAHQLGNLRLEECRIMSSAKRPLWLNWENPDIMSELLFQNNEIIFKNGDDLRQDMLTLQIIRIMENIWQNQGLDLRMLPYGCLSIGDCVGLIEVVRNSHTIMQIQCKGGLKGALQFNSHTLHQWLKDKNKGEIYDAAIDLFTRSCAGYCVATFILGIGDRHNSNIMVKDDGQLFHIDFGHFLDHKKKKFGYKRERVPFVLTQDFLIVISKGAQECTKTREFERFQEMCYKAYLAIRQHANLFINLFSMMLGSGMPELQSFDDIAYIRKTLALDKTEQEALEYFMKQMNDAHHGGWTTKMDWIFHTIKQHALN
Chain of PI3 Kinase α (P27986 whole entry partner): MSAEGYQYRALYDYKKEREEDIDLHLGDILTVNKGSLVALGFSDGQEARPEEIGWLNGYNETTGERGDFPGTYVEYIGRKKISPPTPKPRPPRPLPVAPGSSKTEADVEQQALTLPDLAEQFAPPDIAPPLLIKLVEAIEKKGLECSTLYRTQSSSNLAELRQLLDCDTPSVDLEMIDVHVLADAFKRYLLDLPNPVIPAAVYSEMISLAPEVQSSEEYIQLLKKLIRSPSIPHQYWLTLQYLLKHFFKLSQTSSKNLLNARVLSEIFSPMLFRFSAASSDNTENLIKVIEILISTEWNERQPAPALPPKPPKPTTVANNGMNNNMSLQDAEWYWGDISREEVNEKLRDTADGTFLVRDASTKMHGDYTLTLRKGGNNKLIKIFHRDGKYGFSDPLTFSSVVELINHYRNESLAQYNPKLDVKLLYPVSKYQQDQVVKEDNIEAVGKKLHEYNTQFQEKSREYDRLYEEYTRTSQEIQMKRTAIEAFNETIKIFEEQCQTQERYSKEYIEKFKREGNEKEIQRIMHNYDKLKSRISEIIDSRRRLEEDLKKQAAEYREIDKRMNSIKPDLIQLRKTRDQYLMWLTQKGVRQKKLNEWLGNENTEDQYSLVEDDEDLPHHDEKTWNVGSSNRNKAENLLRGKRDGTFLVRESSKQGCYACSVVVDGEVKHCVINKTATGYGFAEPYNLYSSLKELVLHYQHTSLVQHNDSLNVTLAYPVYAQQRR
Chain of PI3 Kinase γ (P48736 whole entry): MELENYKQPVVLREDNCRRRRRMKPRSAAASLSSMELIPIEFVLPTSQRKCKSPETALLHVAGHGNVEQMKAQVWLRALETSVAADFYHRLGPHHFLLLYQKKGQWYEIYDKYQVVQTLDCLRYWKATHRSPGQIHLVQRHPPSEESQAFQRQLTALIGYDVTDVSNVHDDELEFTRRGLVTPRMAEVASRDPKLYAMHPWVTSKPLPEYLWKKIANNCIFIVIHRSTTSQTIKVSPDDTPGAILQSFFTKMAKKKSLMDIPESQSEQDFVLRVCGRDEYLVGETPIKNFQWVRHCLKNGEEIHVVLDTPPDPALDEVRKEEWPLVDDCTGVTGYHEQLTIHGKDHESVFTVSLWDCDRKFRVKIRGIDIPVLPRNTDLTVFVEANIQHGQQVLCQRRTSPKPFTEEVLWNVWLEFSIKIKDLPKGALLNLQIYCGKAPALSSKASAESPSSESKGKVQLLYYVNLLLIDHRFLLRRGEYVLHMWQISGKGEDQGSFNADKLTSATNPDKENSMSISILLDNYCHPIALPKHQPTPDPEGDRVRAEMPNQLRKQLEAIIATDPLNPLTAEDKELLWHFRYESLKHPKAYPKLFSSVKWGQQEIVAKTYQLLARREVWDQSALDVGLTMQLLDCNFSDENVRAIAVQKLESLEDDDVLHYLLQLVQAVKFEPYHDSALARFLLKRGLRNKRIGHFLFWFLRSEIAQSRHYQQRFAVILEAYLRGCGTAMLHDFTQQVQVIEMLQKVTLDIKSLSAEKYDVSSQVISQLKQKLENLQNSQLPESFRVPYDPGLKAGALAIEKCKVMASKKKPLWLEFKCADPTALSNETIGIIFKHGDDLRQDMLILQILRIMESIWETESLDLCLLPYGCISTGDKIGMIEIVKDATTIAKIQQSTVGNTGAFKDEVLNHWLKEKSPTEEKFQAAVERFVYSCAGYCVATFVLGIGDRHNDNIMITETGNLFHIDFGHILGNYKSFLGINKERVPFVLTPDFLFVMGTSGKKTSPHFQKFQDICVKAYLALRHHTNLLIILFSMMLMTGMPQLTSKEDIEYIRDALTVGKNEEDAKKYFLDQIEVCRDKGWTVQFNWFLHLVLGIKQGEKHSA

For `Oc1cncc(-c2nc(C3=CCOCC3)c3ncn(C4CCNCC4)c3n2)c1` [Compound 44, 5-[6-(3,6-dihydro-2H-pyran-4-yl)-9-piperidin-4-yl-9H-purin-2-yl]pyridin-3-ol], the concentration for half-maximal inhibition (IC50) (usually the point on the concentration scale where inhibition reaches its midpoint) at Human mTOR was 4.8 µM; against PI3 Kinase α, 0.628 µM; against PI3 Kinase γ, 2.63 µM.
Consider “5-[9-{1-[(5-bromopyridin-3-yl)methyl]piperidin-4-yl}-6-(3,6-dihydro-2H-pyran-4-yl)-9H-purin-2-yl]pyridin-3-ol [Compound 35]”, for which the IC50 worked out at 9.8 µM on Human mTOR, 1.34 µM on PI3 Kinase α and 6.74 µM against PI3 Kinase γ.
On the same counts, the results for `Oc1cncc(-c2nc(C3=CCOCC3)c3ncn(C4CCN(Cc5ccccn5)CC4)c3n2)c1` [Compound 31, 5-{6-(3,6-dihydro-2H-pyran-4-yl)-9-[1-(pyridin-2-ylmethyl)piperidin-4-yl]-9H-purin-2-yl}pyridin-3-ol] are 1.6 µM, 0.619 µM and 2.99 µM.
On to `Cc1ccc(CN2CCC(n3cnc4c(C5=CCOCC5)nc(-c5cccc(O)c5)nc43)CC2)cc1` [Compound 18, 3-{6-(3,6-dihydro-2H-pyran-4-yl)-9-[1-(4-methylbenzyl)piperidin-4-yl]-9H-purin-2-yl}phenol], for which the values for the IC50 at Human mTOR, on PI3 Kinase α and on PI3 Kinase γ were 2.1 µM, 12 µM and 12 µM, respectively.
As to `Oc1cccc(-c2nc(C3=CCOCC3)c3nnn(C4CCN(Cc5ccccc5)CC4)c3n2)c1` [Compound 47, 3-[3-(1-benzylpiperidin-4-yl)-7-(3,6-dihydro-2H-pyran-4-yl)-3H-[1,2,3]triazolo[4,5-d]pyrimidin-5-yl]phenol], the IC50 came to 0.23 µM on Human mTOR, 0.998 µM at PI3 Kinase α and 1.5 µM against PI3 Kinase γ.
On to `Oc1cccc(-c2nc(C3=CCOCC3)c3ncn(C4CCN(Cc5ccc(F)c(F)c5)CC4)c3n2)c1` [Compound 20, 3-{9-[1-(3,4-difluorobenzyl)piperidin-4-yl]-6-(3,6-dihydro-2H-pyran-4-yl)-9H-purin-2-yl}phenol], for which the results for the IC50 against PI3 Kinase α and on PI3 Kinase γ were 7 µM and more than 10 µM, respectively.
`O=c1[nH]c2nc(-c3cccc(O)c3)nc(C3=CCOCC3)c2[nH]1` [Compound 38, 6-(3,6-dihydro-2H-pyran-4-yl)-2-(3-hydroxyphenyl)-7,9-dihydro-8H-purin-8-one]: the IC50 on Human mTOR worked out at 0.19 µM; on PI3 Kinase α, 0.152 µM; on PI3 Kinase γ, 0.543 µM.
For the molecule `OCc1cccc(-c2nc(C3=CCOCC3)c3ncn(C4CCN(Cc5cccnc5)CC4)c3n2)c1` [Compound 23, (3-{6-(3,6-dihydro-2H-pyran-4-yl)-9-[1-(pyridin-3-ylmethyl)piperidin-4-yl]-9H-purin-2-yl}phenyl)methanol], the concentration for half-maximal inhibition (IC50) at Human mTOR was 3.8 µM; on PI3 Kinase α, 1.49 µM; against PI3 Kinase γ, 7.37 µM.
Taken in the same sequence, the figures for “7,9-dibenzyl-6-(3,6-dihydro-2H-pyran-4-yl)-2-(3-hydroxyphenyl)-7,9-dihydro-8H-purin-8-one [Compound 66]” were 14 µM, 2.43 µM and 1.61 µM.
As for `Oc1cccc(-c2nc(C3=CCOCC3)c3ncn(C4CCN(Cc5ccccc5)CC4)c3n2)c1` [Compound 12, 3-[9-(1-benzylpiperidin-4-yl)-6-(3,6-dihydro-2H-pyran-4-yl)-9H-purin-2-yl]phenol], the concentration for half-maximal inhibition (IC50) on Human mTOR stood at 1.8 µM; against PI3 Kinase α, 1.77 µM; at PI3 Kinase γ, 5 µM.
Consider `CNC(=O)Nc1ccc(-c2nc(C3=CCOCC3)c3ncn(C4CCN(Cc5ccc[nH]5)CC4)c3n2)cc1` [Compound 41, 1-(4-{6-(3,6-dihydro-2H-pyran-4-yl)-9-[1-(1H-pyrrol-2-ylmethyl)piperidin-4-yl]-9H-purin-2-yl}phenyl)-3-methylurea], for which the results for the IC50 at Human mTOR, against PI3 Kinase α and against PI3 Kinase γ were 0.13 µM, 0.543 µM and 3.11 µM, respectively.
For `Nc1ncccc1CN1CCC(n2cnc3c(C4=CCOCC4)nc(-c4cncc(O)c4)nc32)CC1` [Compound 34, 5-[9-{1-[(2-aminopyridin-3-yl)methyl]piperidin-4-yl}-6-(3,6-dihydro-2H-pyran-4-yl)-9H-purin-2-yl]pyridin-3-ol], the IC50 on Human mTOR was 13 µM; at PI3 Kinase α, 0.526 µM; against PI3 Kinase γ it was 1.5 µM.
`Oc1cccc(-c2nc(C3=CCOCC3)c3ncn(C4CCN(Cc5ccc(Br)nc5)CC4)c3n2)c1` [Compound 19, 3-[9-{1-[(6-bromopyridin-3-yl)methyl]piperidin-4-yl}-6-(3,6-dihydro-2H-pyran-4-yl)-9H-purin-2-yl]phenol]: the IC50 at Human mTOR was 0.69 µM; at PI3 Kinase α it was 5 µM; at PI3 Kinase γ it was more than 10 µM.
Taken in the same sequence, the figures for `O=c1[nH]c2nc(-c3cccc(CO)c3)nc(C3=CCOCC3)c2[nH]1` [Compound 39, 6-(3,6-dihydro-2H-pyran-4-yl)-2-[3-(hydroxymethyl)phenyl]-7,9-dihydro-8H-purin-8-one] were 1.3 µM, 0.524 µM and 0.819 µM.
As for `COc1ccc(CN2CCC(n3cnc4c(C5=CCOCC5)nc(-c5cncc(O)c5)nc43)CC2)cn1` [Compound 32, 5-[6-(3,6-dihydro-2H-pyran-4-yl)-9-{1-[(6-methoxypyridin-3-yl)methyl]piperidin-4-yl}-9H-purin-2-yl]pyridin-3-ol], the IC50 came out at 1.7 µM at Human mTOR, 0.858 µM at PI3 Kinase α and 2.53 µM at PI3 Kinase γ.
Take `Oc1cccc(-c2nc(C3=CCOCC3)c3ncn(C4CCNCC4)c3n2)c1` [Compound 40, 3-[6-(3,6-dihydro-2H-pyran-4-yl)-9-piperidin-4-yl-9H-purin-2-yl]phenol]: the IC50 at Human mTOR was 1.4 µM; against PI3 Kinase α it was 0.54 µM; against PI3 Kinase γ it was 3.16 µM.
As for `Oc1cccc(-c2nc(C3=CCOCC3)c3ncn(C4CCN(Cc5ccc(N6CCOCC6)nc5)CC4)c3n2)c1` [Compound 14, 3-[6-(3,6-dihydro-2H-pyran-4-yl)-9-{1-[(6-morpholin-4-ylpyridin-3-yl)methyl]piperidin-4-yl}-9H-purin-2-yl]phenol], the results for the IC50 at Human mTOR, on PI3 Kinase α and at PI3 Kinase γ were 0.86 µM, 1.49 µM and more than 10 µM, respectively.
As for `OCc1cccc(-c2nc(C3=CCOCC3)c3ncn(C4CCN(Cc5ccccn5)CC4)c3n2)c1` [Compound 24, (3-{6-(3,6-dihydro-2H-pyran-4-yl)-9-[1-(pyridin-2-ylmethyl)piperidin-4-yl]-9H-purin-2-yl}phenyl)methanol], the IC50 on Human mTOR was found to be 1.7 µM; against PI3 Kinase α, 1.69 µM; against PI3 Kinase γ, 7.62 µM.
